The results in this text go back to patent US20230079819A1, “COMPOUNDS AND USES THEREOF” (Foghorn Therapeutics Inc., priority 2019, published 2023).

In one experiment the target is T1, BRG-1 (Homo sapiens, UniProt P51532).
T1 construct: made in house; host or cells: High Five insect cells
The experiment can be described thus: ATPase catalytic activity of BRG-1, ADP-Glo in vitro biochemical assay. The conditions noted are these: ATPase catalytic activity, 30 nM BRG-1, 400 μM ATP, read-out: BRG1 IP50 (μM)*. For orientation: In ADP-Glo the light output rises with the ADP produced.

Another experiment has as its target T2, BRM (Homo sapiens, UniProt P51531).
T2 construct: made in house; host or cells: High Five insect cells
The experiment can be described thus: ATPase catalytic activity of BRM, ADP-Glo in vitro biochemical assay. The conditions noted are these: ATPase catalytic activity, 30 nM BRM, 400 μM ATP, read-out: BRM IP50 (μM)*.

T1 sequence (P51532 whole entry): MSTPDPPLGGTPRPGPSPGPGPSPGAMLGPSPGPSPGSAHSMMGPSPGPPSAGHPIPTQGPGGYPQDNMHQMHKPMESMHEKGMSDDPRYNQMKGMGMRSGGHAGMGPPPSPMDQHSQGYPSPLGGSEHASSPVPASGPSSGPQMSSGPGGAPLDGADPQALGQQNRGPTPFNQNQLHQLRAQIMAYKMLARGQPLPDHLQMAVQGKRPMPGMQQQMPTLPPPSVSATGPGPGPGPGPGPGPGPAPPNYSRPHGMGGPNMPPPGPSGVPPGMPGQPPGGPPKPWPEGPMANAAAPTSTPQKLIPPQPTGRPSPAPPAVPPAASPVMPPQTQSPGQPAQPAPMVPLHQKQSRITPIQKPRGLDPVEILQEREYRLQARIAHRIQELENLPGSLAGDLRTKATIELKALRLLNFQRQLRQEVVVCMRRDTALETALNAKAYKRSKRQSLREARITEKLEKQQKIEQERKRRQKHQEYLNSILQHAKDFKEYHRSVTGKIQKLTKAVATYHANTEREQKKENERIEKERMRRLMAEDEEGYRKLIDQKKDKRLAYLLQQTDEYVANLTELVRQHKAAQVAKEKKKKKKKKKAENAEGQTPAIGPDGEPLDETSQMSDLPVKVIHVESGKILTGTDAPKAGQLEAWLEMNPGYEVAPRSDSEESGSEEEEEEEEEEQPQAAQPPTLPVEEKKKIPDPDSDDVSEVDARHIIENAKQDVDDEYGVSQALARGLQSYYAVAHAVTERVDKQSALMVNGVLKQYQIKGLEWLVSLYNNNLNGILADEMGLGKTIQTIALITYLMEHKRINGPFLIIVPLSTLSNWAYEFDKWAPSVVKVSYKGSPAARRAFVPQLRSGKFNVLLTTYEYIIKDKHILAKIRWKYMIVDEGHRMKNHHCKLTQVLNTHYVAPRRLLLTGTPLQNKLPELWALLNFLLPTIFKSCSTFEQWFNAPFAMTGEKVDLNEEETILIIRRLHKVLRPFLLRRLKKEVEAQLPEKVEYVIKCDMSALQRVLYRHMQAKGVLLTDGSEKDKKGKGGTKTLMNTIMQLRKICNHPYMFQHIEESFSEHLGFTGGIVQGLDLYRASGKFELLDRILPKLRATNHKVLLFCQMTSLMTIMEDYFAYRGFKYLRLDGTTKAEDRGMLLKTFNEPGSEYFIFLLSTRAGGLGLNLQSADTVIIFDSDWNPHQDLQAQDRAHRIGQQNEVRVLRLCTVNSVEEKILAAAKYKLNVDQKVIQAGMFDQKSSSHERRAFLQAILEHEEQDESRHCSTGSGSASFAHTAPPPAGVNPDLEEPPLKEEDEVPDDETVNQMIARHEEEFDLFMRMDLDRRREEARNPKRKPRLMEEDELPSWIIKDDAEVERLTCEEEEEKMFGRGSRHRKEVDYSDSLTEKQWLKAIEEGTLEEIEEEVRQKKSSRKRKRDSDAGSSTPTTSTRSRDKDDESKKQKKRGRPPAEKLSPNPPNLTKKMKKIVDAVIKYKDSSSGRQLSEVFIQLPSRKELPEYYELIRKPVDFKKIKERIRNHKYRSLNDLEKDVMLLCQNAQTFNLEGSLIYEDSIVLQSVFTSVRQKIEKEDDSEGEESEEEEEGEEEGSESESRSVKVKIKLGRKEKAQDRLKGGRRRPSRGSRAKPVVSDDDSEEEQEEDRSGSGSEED
T2 sequence (P51531 whole entry): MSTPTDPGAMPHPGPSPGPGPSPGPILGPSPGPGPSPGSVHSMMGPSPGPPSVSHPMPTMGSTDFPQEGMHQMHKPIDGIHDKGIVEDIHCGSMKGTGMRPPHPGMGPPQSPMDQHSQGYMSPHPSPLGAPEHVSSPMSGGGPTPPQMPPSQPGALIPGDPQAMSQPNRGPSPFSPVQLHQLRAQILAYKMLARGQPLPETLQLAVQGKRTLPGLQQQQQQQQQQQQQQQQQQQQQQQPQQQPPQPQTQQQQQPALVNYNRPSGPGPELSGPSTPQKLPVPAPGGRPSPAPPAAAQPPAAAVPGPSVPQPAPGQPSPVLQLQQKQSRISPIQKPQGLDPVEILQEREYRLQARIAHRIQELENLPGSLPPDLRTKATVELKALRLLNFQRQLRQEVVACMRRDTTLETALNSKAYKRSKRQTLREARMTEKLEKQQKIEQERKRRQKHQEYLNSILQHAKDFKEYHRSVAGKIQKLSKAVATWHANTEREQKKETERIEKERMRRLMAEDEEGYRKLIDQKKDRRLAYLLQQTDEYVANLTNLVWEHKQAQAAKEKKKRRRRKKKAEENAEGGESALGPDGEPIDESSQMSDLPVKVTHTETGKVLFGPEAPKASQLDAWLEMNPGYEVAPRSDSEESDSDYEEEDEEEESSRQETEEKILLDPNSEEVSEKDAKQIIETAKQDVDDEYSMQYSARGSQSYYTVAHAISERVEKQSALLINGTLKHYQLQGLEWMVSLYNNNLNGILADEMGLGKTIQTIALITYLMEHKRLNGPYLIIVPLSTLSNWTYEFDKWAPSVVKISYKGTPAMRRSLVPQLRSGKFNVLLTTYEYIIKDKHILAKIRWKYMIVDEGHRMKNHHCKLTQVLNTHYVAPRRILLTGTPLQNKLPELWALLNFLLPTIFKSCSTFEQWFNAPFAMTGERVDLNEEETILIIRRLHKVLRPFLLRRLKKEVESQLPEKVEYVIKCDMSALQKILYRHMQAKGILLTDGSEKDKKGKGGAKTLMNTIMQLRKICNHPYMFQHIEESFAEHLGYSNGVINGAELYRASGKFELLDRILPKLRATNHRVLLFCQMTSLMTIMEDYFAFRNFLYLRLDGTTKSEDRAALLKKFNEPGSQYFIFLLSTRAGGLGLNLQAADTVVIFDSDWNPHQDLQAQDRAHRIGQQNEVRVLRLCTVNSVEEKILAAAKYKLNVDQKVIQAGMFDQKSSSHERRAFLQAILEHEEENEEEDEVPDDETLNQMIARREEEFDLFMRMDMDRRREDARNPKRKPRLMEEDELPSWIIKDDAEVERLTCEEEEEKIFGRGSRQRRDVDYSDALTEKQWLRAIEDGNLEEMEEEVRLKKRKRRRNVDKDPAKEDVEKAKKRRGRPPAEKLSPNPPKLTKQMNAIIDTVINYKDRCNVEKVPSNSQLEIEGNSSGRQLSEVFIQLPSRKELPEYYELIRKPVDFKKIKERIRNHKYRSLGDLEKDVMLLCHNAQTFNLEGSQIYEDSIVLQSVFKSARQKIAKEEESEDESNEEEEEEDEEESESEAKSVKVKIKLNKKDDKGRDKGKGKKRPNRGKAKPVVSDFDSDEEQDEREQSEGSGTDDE

In the case of `Cn1cnc(-c2cccc(-c3csc(NC(=O)CNC(=O)c4ccn(S(C)(=O)=O)c4)n3)c2)c1` [Compound 18, N-(2-((4-(3-(1-methyl-1H-imidazol-4-yl)phenyl)thiazol-2-yl)amino)-2-oxoethyl)-1-(methylsulfonyl)-1H-pyrrole-3-carboxamide], the IC50 at BRG-1 and at BRM was greater than 0.01 µM each time.
With `CN1CCN(c2cc(-c3cccc(-c4csc(NC(=O)CNC(=O)c5ccn(S(C)(=O)=O)c5)n4)c3)ccn2)CC1` [Compound 19, N-(2-((4-(3-(2-(4-methylpiperazin-1-yl)pyridin-4-yl)phenyl)thiazol-2-yl)amino)-2-oxoethyl)-1-(methylsulfonyl)-1H-pyrrole-3-carboxamide], the IC50 at BRG-1 and at BRM was greater than 0.01 µM throughout.
As for `CN(C)CCNc1cc(-c2cccc(-c3csc(NC(=O)CNC(=O)c4ccn(S(C)(=O)=O)c4)n3)c2)ccn1` [Compound 20, N-(2-((4-(3-(2-((2-(dimethylamino)ethyl)amino)pyridin-4-yl)phenyl)thiazol-2-yl)amino)-2-oxoethyl)-1-(methylsulfonyl)-1H-pyrrole-3-carboxamide], the IC50 at BRG-1 and at BRM was greater than 0.01 µM each time.
For the molecule `CN(C)CCN(C)c1cc(-c2cccc(-c3csc(NC(=O)CNC(=O)c4ccn(S(C)(=O)=O)c4)n3)c2)ccn1` [Compound 21, N-(2-((4-(3-(2-((2-(dimethylamino)ethyl)(methyl)amino)pyridin-4-yl)phenyl)thiazol-2-yl)amino)-2-oxoethyl)-1-(methylsulfonyl)-1H-pyrrole-3-carboxamide], the IC50 on BRG-1 and at BRM was greater than 0.01 µM in each case.
For `Cc1cc(-c2cccc(-c3csc(NC(=O)CNC(=O)c4ccn(C(C)(C)C)c4)n3)c2)ncn1` [Compound 22, 1-(tert-butyl)-N-(2-((4-(3-(6-methylpyrimidin-4-yl)phenyl)thiazol-2-yl)amino)-2-oxoethyl)-1H-pyrrole-3-carboxamide], the IC50 on BRG-1 and at BRM was less than 0.01 µM each time.
In the case of `Cc1nccc(-c2cccc(-c3csc(NC(=O)CNC(=O)c4ccn(C(C)(C)C)c4)n3)c2)n1` [Compound 23, 1-(tert-butyl)-N-(2-((4-(3-(2-methylpyrimidin-4-yl)phenyl)thiazol-2-yl)amino)-2-oxoethyl)-1H-pyrrole-3-carboxamide], the IC50 on BRG-1 and at BRM was less than 0.01 µM throughout.
For the molecule `CC(C)(C)n1ccc(C(=O)NCC(=O)Nc2nc(-c3cccc(-c4ccnc(CN)c4)c3)cs2)c1` [Compound 24, N-(2-((4-(3-(2-(aminomethyl)pyridin-4-yl)phenyl)thiazol-2-yl)amino)-2-oxoethyl)-1-(tert-butyl)-1H-pyrrole-3-carboxamide], the IC50 on BRG-1 and on BRM was greater than 0.01 µM throughout.
Turning to `COC(C)(C)Cn1ccc(-c2cccc(-c3csc(NC(=O)CNC(=O)c4ccn(C(C)(C)C)c4)n3)c2)n1` [Compound 25, 1-(tert-butyl)-N-(2-((4-(3-(1-(2-methoxy-2-methylpropyl)-1H-pyrazol-3-yl)phenyl)thiazol-2-yl)amino)-2-oxoethyl)-1H-pyrrole-3-carboxamide], the IC50 on BRG-1 is greater than 0.1 µM; at BRM, greater than 0.01 µM.
The matching figures for `Cn1nc(-c2cccc(-c3csc(NC(=O)CNC(=O)c4ccn(C(C)(C)C)c4)n3)c2)cc1CO` [Compound 26, 1-(tert-butyl)-N-(2-((4-(3-(5-(hydroxymethyl)-1-methyl-1H-pyrazol-3-yl)phenyl)thiazol-2-yl)amino)-2-oxoethyl)-1H-pyrrole-3-carboxamide]: greater than 0.01 µM and greater than 0.01 µM.
Taken in the same sequence, the figures for `COCC(C)(C)n1ccc(C(=O)NCC(=O)Nc2nc(-c3cccc(-c4ccn(C)n4)c3)cs2)c1` [Compound 27, 1-(1-methoxy-2-methylpropan-2-yl)-N-(2-((4-(3-(1-methyl-1H-pyrazol-3-yl)phenyl)thiazol-2-yl)amino)-2-oxoethyl)-1H-pyrrole-3-carboxamide] were greater than 1 µM and greater than 0.1 µM.
Taken in the same sequence, the figures for `Cn1ccc(-c2cccc(-c3csc(NC(=O)CNC(=O)c4ccn(CC(C)(C)O)c4)n3)c2)n1` [Compound 28, 1-(2-hydroxy-2-methylpropyl)-N-(2-((4-(3-(1-methyl-1H-pyrazol-3-yl)phenyl)thiazol-2-yl)amino)-2-oxoethyl)-1H-pyrrole-3-carboxamide] were greater than 1 µM and greater than 1 µM.
As for `COC(C)(C)Cn1ccc(C(=O)NCC(=O)Nc2nc(-c3cccc(-c4ccn(C)n4)c3)cs2)c1` [Compound 29, 1-(2-methoxy-2-methylpropyl)-N-(2-((4-(3-(1-methyl-1H-pyrazol-3-yl)phenyl)thiazol-2-yl)amino)-2-oxoethyl)-1H-pyrrole-3-carboxamide], the IC50 on BRG-1 and on BRM was greater than 1 µM in each case.
For the molecule `Cn1ccc(-c2cccc(-c3csc(NC(=O)CNC(=O)c4ccn(C(C)(C)CO)c4)n3)c2)n1` [Compound 30, 1-(1-hydroxy-2-methylpropan-2-yl)-N-(2-((4-(3-(1-methyl-1H-pyrazol-3-yl)phenyl)thiazol-2-yl)amino)-2-oxoethyl)-1H-pyrrole-3-carboxamide], the IC50 at BRG-1 and at BRM was greater than 0.01 µM in each case.
Turning to `Cn1cncc1C(=O)NCC(=O)Nc1nc(-c2cccc(C#N)c2)cs1` [Compound 31, N-(2-((4-(3-cyanophenyl)thiazol-2-yl)amino)-2-oxoethyl)-1-methyl-1H-imidazole-5-carboxamide], the IC50 at BRG-1 and on BRM was greater than 1 µM throughout.
Regarding `Cn1nccc1C(=O)NCC(=O)Nc1nc(-c2cccc(C#N)c2)cs1` [Compound 32, N-(2-((4-(3-cyanophenyl)thiazol-2-yl)amino)-2-oxoethyl)-1-methyl-1H-pyrazole-5-carboxamide], the IC50 at BRG-1 and on BRM was greater than 1 µM throughout.
On to `CS(=O)(=O)n1ccc(C(=O)NCC(=O)Nc2nc(-c3cccc(C#N)c3)cs2)c1` [Compound 33, N-(2-((4-(3-cyanophenyl)thiazol-2-yl)amino)-2-oxoethyl)-1-(methylsulfonyl)-1H-pyrrole-3-carboxamide], for which the IC50 on BRG-1 and at BRM was greater than 0.01 µM in each case.
On to `CC(C)(C#N)n1ccc(C(=O)NCC(=O)Nc2nc(-c3cccc(C#N)c3)cs2)c1` [Compound 34, N-(2-((4-(3-cyanophenyl)thiazol-2-yl)amino)-2-oxoethyl)-1-(2-cyanopropan-2-yl)-1H-pyrrole-3-carboxamide], for which the IC50 was greater than 0.1 µM on BRG-1 and greater than 0.01 µM at BRM.
Taken in the same sequence, the figures for `CC(C)(C)n1ccc(C(=O)NCC(=O)Nc2nc(-c3cccc(C#N)c3)cs2)c1` [Compound 35, 1-(tert-butyl)-N-(2-((4-(3-cyanophenyl)thiazol-2-yl)amino)-2-oxoethyl)-1H-pyrrole-3-carboxamide] were greater than 0.1 µM and greater than 0.1 µM.
As to `CC(C)(C)n1ccc(C(=O)NCC(=O)Nc2nc(-c3cccc(C#N)c3)cs2)n1` [Compound 36, 1-(tert-butyl)-N-(2-((4-(3-cyanophenyl)thiazol-2-yl)amino)-2-oxoethyl)-1H-pyrazole-3-carboxamide], the IC50 on BRG-1 and on BRM was greater than 0.1 µM throughout.
On to `CC(C)(C)n1cc(C(=O)NCC(=O)Nc2nc(-c3cccc(C#N)c3)cs2)cn1` [Compound 37, 1-(tert-butyl)-N-(2-((4-(3-cyanophenyl)thiazol-2-yl)amino)-2-oxoethyl)-1H-pyrazole-4-carboxamide], for which the IC50 at BRG-1 and on BRM was greater than 1 µM throughout.
For the molecule `NCCn1ccc(C(=O)NCC(=O)Nc2nc(-c3cccc(-c4ccncc4)c3)cs2)c1` [Compound 38, 1-(2-aminoethyl)-N-(2-oxo-2-((4-(3-(pyridin-4-yl)phenyl)thiazol-2-yl)amino)ethyl)-1H-pyrrole-3-carboxamide], the IC50 on BRG-1 and on BRM was greater than 0.1 µM each time.
`O=C(CNC(=O)c1ccn(C2CCNCC2)c1)Nc1nc(-c2cccc(-c3ccncc3)c2)cs1` [Compound 39, N-(2-oxo-2-((4-(3-(pyridin-4-yl)phenyl)thiazol-2-yl)amino)ethyl)-1-(piperidin-4-yl)-1H-pyrrole-3-carboxamide]: the IC50 on BRG-1 and at BRM was greater than 1 µM each time.
Turning to `NCCS(=O)(=O)n1ccc(C(=O)NCC(=O)Nc2nc(-c3cccc(-c4ccncc4)c3)cs2)c1` [Compound 40, 1-((2-aminoethyl)sulfonyl)-N-(2-oxo-2-((4-(3-(pyridin-4-yl)phenyl)thiazol-2-yl)amino)ethyl)-1H-pyrrole-3-carboxamide], the IC50 on BRG-1 and on BRM was greater than 0.01 µM each time.
For `CC(C)(C)n1ccc(C(=O)NCC(=O)Nc2nc(-c3cccc(-c4ccncc4)c3)cs2)c1` [Compound 41, 1-(tert-butyl)-N-(2-oxo-2-((4-(3-(pyridin-4-yl)phenyl)thiazol-2-yl)amino)ethyl)-1H-pyrrole-3-carboxamide], the IC50 is greater than 0.01 µM at BRG-1 and less than 0.01 µM on BRM.
`CC(C)(CN)n1ccc(C(=O)NCC(=O)Nc2nc(-c3cccc(-c4ccncc4)c3)cs2)c1` [Compound 42, 1-(1-amino-2-methylpropan-2-yl)-N-(2-oxo-2-((4-(3-(pyridin-4-yl)phenyl)thiazol-2-yl)amino)ethyl)-1H-pyrrole-3-carboxamide]: the IC50 was greater than 0.1 µM at BRG-1 and greater than 0.01 µM at BRM.
The matching figures for `CC(C)S(=O)(=O)n1ccc(C(=O)NCC(=O)Nc2nc(-c3cccc(-c4ccncc4)c3)cs2)c1` [Compound 43, 1-isopropylsulfonyl-N-[2-oxo-2-[[4-[3-(4-pyridyl)phenyl]thiazol-2-yl]amino]ethyl]pyrrole-3-carboxamide]: greater than 0.01 µM and greater than 0.01 µM.
For the molecule `CS(=O)(=O)n1cc(C(=O)NCC(=O)Nc2nc(-c3cccc(-c4ccncc4)c3)cs2)cn1` [Compound 44, 1-(methylsulfonyl)-N-(2-oxo-2-((4-(3-(pyridin-4-yl)phenyl)thiazol-2-yl)amino)ethyl)-1H-pyrazole-4-carboxamide], the values for the IC50 at BRG-1 and on BRM were greater than 0.1 µM and greater than 0.01 µM, respectively.
